# Measurements: US7956088B2, “Synthetic lactone formulations and methods of use” (priority 2002, dated 2011)
# Where “and” joins values, the source holds several entries; their conditions need not be identical. Equal entries are not always repeated. Where two headings read alike, the source gives them in different places.
# How the values were obtained:
# Sarcina lutea = assay: Disc zone of inhibition / MIC tests No. 1-3, poured in plate, Mueler Hinton pH 8; format: cell-based; settings: for zone of inhibition at 10 µg/disc: Micrococcus luteus; for zone of inhibition at 10 µg/disc / P (mm), zone of inhibition: pattern disc with 10 μg
# [1] = Rats infected in surgery, then treated; format: in vivo
# Description: The high activity of these lactones against Escherichia coli, Klebsiela pneumoniae, Pseudomona aeruginosa, Staphylococo aureus, among others, and its low molecular weight, are advantageous.
# [2] = test system: Salmonella typhimurium TA100; assay: Ames test; format: cell-based; settings: ≦100 μg/mL
# Description: (§1) This study was performed in accordance with the norms of USC 79/831, which establishes the guidelines for toxicological analytical methods.
# (§2) The Ames test detects drug-induced ‘reverting mutations’ in previously mutated strains of Salmonella typhimurium, all of which have the rfa mutation that makes their cell membranes permeable to chemical agents. […] The presence of these mutations incapacitates the growth of these cells in a histidine-poor culture medium.
# (§3) A drug is said to be mutagenic if it causes a greater than 2-fold increase in the number of colonies growing in histidine-poor medium.
# [3] = test system: Salmonella typhimurium TA98; assay: Ames test; format: cell-based; settings: 1 or 10 μg/mL
# Description: as §1, §2, §3
# Klebsiela pneumoniae = assay: Microbiological sensitivity assay; format: cell-based
# Description: (§4) Culture Medium for E. coli and k. neumoniae (according to USP 23 <81>) • Peptone . . . 5.0 g • Yeast Extract . . . 1.5 g • Beef Extract . . . 1.5 g • Sodium Chloride . . . 3.5 g • Dextrose . . . 1.0 g • Dibasic Potassium Phosphate . . . 3.68 g • Monobasic Potassium Phosphate . . . 1.32 g • Water To make about . . . 1.0 L • pH after sterilized 7.0±0.05 Antibacterial Activity Assays (Minimum Inhibitory Concentration, MIC)
# Escherichia coli = assay: Microbiological sensitivity assay; format: cell-based
# Description: as §4
# [4] = test system: LnCaP human prostate cancer cells; assay: In vitro cytotoxicity / anti-proliferative activity; format: cell-based
# Description: (§5) Four tumor cell lines, including human prostate cancers PC-4 (androgen-insensitive) and LnCaP (androgen-insensitive) and human cervical cancers CaSKi (human papilloma virus-(HPV) Type-16 positive] and C-33 (HPV-negative), were cultured in RPMI-10% bovine serum, glutamine and antibiotics at 5% CO2 an 37 degrees Celsius.
# (§6) The lethal dosages for each cell line is listed below:
# [5] = Study of adverse reactions in healthy volunteers; format: in vivo
# Description: Nineteen healthy volunteers participated in the study. The age of the participants was between 21 and 40 years with an average of 30.5±7.2 years. The weight was between 150 and 190 pounds with a median of 163.2±14.3 pounds and the height was 1.8 to 2.1 meters with an average of 1.9±0.1 meters. The subjects were selected at random in agreement with the national and international criteria and norms established for investigations with human beings.
# The state of health of the participants was established using several clinical evaluations, laboratory tests, electrocardiographs and thoracic radiographs. The functionality of the liver and the renal systems was verified by chemical-enzymatic studies. Likewise, for each participant we carried out tests of blood chemistry, pathology and urinalysis. For the females, the absence of pregnancy and/or lactation was verified by means of laboratory tests and gynecological evaluation.
# Participants were divided into three groups selected at random (n=6): • Group I (placebo) received 2.0 ml of saline solution (ClNa^+, 0.9%), Group II, received 60 mg of LMSV-6 intramuscularly, and Group III (n=7) received 100 mg of LMSV-6 intramuscularly. The participants underwent several tests used to establish the basal values of the objective parameters of the analysis, which included:
# Lab Studies: hemogram, blood chemistry, urinalysis and coproanalysis
# Cardiovascular Function: arterial tension (TA), cardiac rhythm (RC), cardiac frequency (FC) and radial pulse (PR)
# Pulmonary Functions: pulmonary respiration (VP) and respiratory frequency (FR)
# Renal Function: urinary volume and urinary frequency (FU)
# Sensory System: hearing, vision, smell, taste and sensory reflexes
# Skin and/or Teguments: sensitivity, skin texture, temperature and musculo-skeletal tone
# Neurovegetative Functions: salivary gland and sweat gland activities, gastrointestinal […] and visceral reflexes
# Hypersensitivity Reactions: local sensitivity and systemic sensitivity.
# [6] = test system: PC-4, LnCaP, CaSKi and C-33 tumor cell lines; settings: curves of 1000 μg LMSV-6 and 1000 μM tamoxifen; cell line not stated
# Description: Four tumor cell lines, including human prostate cancers PC-4 ([…]) and LnCaP ([…]) and human cervical cancers CaSKi (human papilloma virus-(HPV) Type-16 positive] and C-33 (HPV-negative), were cultured in RPMI-10% bovine serum, glutamine and antibiotics at 5% CO2 an 37 degrees Celsius.
# [7] = test system: PC-4 human prostate cancer cells; assay: In vitro cytotoxicity / anti-proliferative activity; format: cell-based
# Description: as §5, §6
# [8] = test system: C-33 (HPV-negative) human cervical cancer cells; assay: as above; format: cell-based
# Description: as §5, §6
# [9] = test system: CaSKi (HPV Type-16 positive) human cervical cancer cells; assay: as above; format: cell-based
# Description: as §5, §6
# Staphylococcus aureus = assay: Microbiological sensitivity assay; format: cell-based
# Description: Culture Medium for Staphylococo aureus (USP 23 <81>) • Peptone . . . 1.0 g • Digestive pancreatic Caseine . . . 4.0 g • Yeast Extract . . . 3.0 g • Beef Extract . . . 1.5 g • Dextrose . . . 1.0 g • Agar . . . 15.0 g • Water to make about . . . 1.0 Lit • pH after sterilized 6.6±0.1
# Pseudomona aeruginosa = assay: Microbiological sensitivity assay; format: cell-based
# Description: Culture Medium for Pseudomona aeruginosa (USP 23 <81>) • Pancreatic digestive Caseine . . . 17.0 g • soy Papaine digestive . . . 3.0 g • Sodium Chloride . . . 5.0 g • Dibasic Potassium Phosphate . . . 2.5 g • Dextrose . . . 2.5 g • Agar . . . 20.0 g • Water to make about . . . 1.0 Lit • pH after sterilized 7.2±0.1
# [10] = anti-proliferative activity after 72 hours
smiles,measurement,setting,value
"CO/N=C(\C(=O)N[C@@H]1C(=O)N2C(C(=O)O)=C(CSc3nc(=O)c(=O)[nH]n3C)CS[C@H]12)c1csc(N)n1 [Ceftriaxone, reference compound]",zone of inhibition at 10 µg/disc,"Sarcina lutea; Test No 2, read-out: P (mm), zone of inhibition",18 mm
same,zone of inhibition at 10 µg/disc,"Sarcina lutea; Test No 2, unlabelled sum line, read-out: P (mm), total of the three zones",49 mm
same,zone of inhibition at 10 µg/disc,"Sarcina lutea; Test No. 1, read-out: P (mm), zone of inhibition",12 mm
same,zone of inhibition at 10 µg/disc,"Sarcina lutea; Test No. 1, unlabelled sum line, read-out: P (mm), total of the three zones",43 mm
same,zone of inhibition at 10 µg/disc,"Sarcina lutea; Test No. 3, read-out: P (mm), zone of inhibition",18 mm
same,zone of inhibition at 10 µg/disc,"Sarcina lutea; Test No. 3, unlabelled sum line, read-out: P (mm), total of the three zones",49 mm
same,"P (mm), zone of inhibition",Sarcina lutea; Test No 2,16 mm and 15 mm
same,"P (mm), zone of inhibition",Sarcina lutea; Test No. 1,15 mm and 16 mm
same,"P (mm), zone of inhibition",Sarcina lutea; Test No. 3,16 mm and 15 mm
"C=C1CCOC1=O [LMSV-6, 4,5-dihydro-3-methylene-2[3H]furanone]",Treatment of developed infection,[1],successfully treated
same,Colony count in histidine-poor medium,[2],did not increase normal colony count
same,Colony count in histidine-poor medium,[3],did not increase normal colony count
same,Activity against Klebsiela pneumoniae,Klebsiela pneumoniae,high activity
same,Activity against Escherichia coli,Escherichia coli,high activity
same,LD50,"[4]; LNCaP, anti-proliferative activity after 72 hours",26.5 µM
same,"LD50, cytotoxicity","[4]; LnCaP, after 4 hours","> 1,982 μM"
same,Respiratory frequency (FR),[5]; during the entire test,18 to 20 respirations per minute
same,Adverse reactions,"[5]; human, in vivo","no evidence, sign or symptom of adverse reactions"
same,"Allergic effects (reactivity), local and systemic","[5]; human, in vivo",not any manifestation of allergic reactions
same,Cutaneous sensitivity and temperature,"[5]; human, in vivo",did not provoke any change
same,Electrocardiograph pattern,"[5]; human, in vivo",no variation
same,"Mental state and sensory acuteness (auditory, visual, olfactory, taste)","[5]; human, in vivo",did not provoke any alteration
same,Respiratory mechanics and dynamics,"[5]; human, in vivo",did not alter
same,Tolerance of maximum dosage tested,"[5]; human, in vivo",well tolerated
same,LD50 from curves of percent inhibition of proliferation,[6],528 µM
same,"LD50, cytotoxicity",[7]; after 4 hours,"> 1,982 μM"
same,LD50,[7]; [10],59.2 µM
same,"LD50, cytotoxicity",[8]; after 4 hours,538 µM
same,LD50,[8]; [10],7.10 µM
same,"S (mm), zone of inhibition","Sarcina lutea; Test No 2, 16.0 microliters/100 mL and 10 μL applied to sensibility disc",20 mm and 23 mm and 19 mm
same,"S (mm), total of the three zones","Sarcina lutea; Test No 2, 16.0 microliters/100 mL, 10 μL applied, unlabelled sum line",62 mm
same,"S (mm), zone of inhibition","Sarcina lutea; Test No. 1, 5 pure μL applied to sensibility disc",40 mm and 44 mm and 43 mm
same,"S (mm), total of the three zones","Sarcina lutea; Test No. 1, 5 pure μL, unlabelled sum line",127 mm
same,Sample zone of inhibition relative to pattern,"Sarcina lutea; Test No. 1, versus ceftriaxone 10 μg disc",three times bigger
same,"S (mm), zone of inhibition","Sarcina lutea; Test No. 3, 10 microliters/10 mL and 20 μL applied to sensibility disc",3 mm and 4 mm
same,"S (mm), total of the three zones","Sarcina lutea; Test No. 3, 10 microliters/10 mL, 20 μL applied, unlabelled sum line",10 mm
same,Zone of Inhibition,Sarcina lutea; applied volume to disc 0.2 μL (MIC),3.3 mm
same,Zone of Inhibition,Sarcina lutea; applied volume to disc 1.6 M,20.0 mm
same,Zone of Inhibition,Sarcina lutea; applied volume to disc 5 μL,42.0 mm
same,Minimum Inhibitory Concentration (MIC),Sarcina lutea; volume applied to disc,~0.2 µL
same,"LD50, cytotoxicity",[9]; after 4 hours,"> 1,982 μM"
same,LD50,[9]; [10],64.3 µM
same,Activity against Staphylococcus aureus,Staphylococcus aureus,high activity
same,Activity against Pseudomona aeruginosa,Pseudomona aeruginosa,high activity
"CN(Cc1cnc2nc(N)nc(N)c2n1)c1ccc(C(=O)N[C@@H](CCC(=O)O)C(=O)O)cc1 [methotrexate, reference compound]",Anti-proliferative activity against CaSKi,[9],lacked activity
CC/C(=C(\c1ccccc1)c1ccc(OCCN(C)C)cc1)c1ccccc1 [Tamoxifen],LD50 from curves of percent inhibition of proliferation,[6],345 µM
